The results in this text go back to patent US20260097047A1, “Small molecule inhibitors of the ribosome biogenesis factor NVL2” (Board of Regents, The University of Texas System, priority 2023, published 2026).

Read-outs that look alike come from different tables or passages of the source.

One test relates to HCT116 cells. As to the kind of experiment: Cell viability assay (CellTiter-Glo, 72 hours) in HCT116 human colorectal cancer cells. Format: cell-based. As to conditions: for IC50: Homo sapiens, HCT-116. The method in brief: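 2,000 cells/well adhered overnight, then compound added by digital dispenser with DMSO normalized to 0.5%. Viability read after 72 h at 37 °C by ATP-based CellTiter-Glo luminescence. IC50 from ten-point curves baseline-corrected to vehicle, five-parameter asymmetric least-squares fit.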

For another test, the system named is HCT116 NVL^P307T cells. As to the kind of experiment: Cell viability in compound-resistant HCT116 NVL^P307T cells. Format: cell-based, human. The following applies: for IC50: Homo sapiens, HCT-116, NVL^P307T. An excerpt:
Assessing the ability of NVL2 inhibitors to selectively kill WT versus NVL2^mut HCT116, block ribosome biogenesis and induce p53. We evaluate analogs in the colorectal cancer cell line HCT116 and already available compound-resistant clones. One clone has a mutation in the compound binding site (NVL2^R403W) and another clone (NVL2^P307T) has a mutation distant from the binding site that confers resistance through an unknown effect. Based on our results, analogs that kill HCT116 cells via NVL2 inhibition (on-target) have reduced potency in compound-resistant HCT116 mutant clones. Our analogs have been counter-screened against the NVL2 compound-resistant mutant clones with fold resistance range between 10-100 fold (most analogs 20-50 fold). This counter screen provides a strategy for identifying off-target toxins.
From whole exome sequencing, we identified variants that were acquired during IAA-induced mutagenesis with the hypothesis that genes related to resistance will be mutated in multiple clones. Two genes contained acquired variants in at least 3 of the 15 selected clones: TERT, mutated in 3 of 15 clones, and NVL, mutated in all 15 clones. […] In sum, 57 out of 59 unique clones harbored NVL mutations. The majority of mutations clustered within the D1 AAA+ ATPase domain and frequently affecting the same codons. To test whether these mutations are sufficient for MM017 resistance, we used CRISPR-Cas9 to knock-in two of the most resistant mutations (NVL^P307T, NVL^R403W) and a mutation with intermediate resistance (NVL^H304R). Transfection of cells with sgRNAs targeting these NVL residues in addition to a mutation-encoding repair template yielded an increased rate of resistance when compared to mock treatments.
HCT116 cells were transfected with TransIT-LT (Mirus #MIR2304) according to manufacturer's protocol with a guide RNA (either mock or NVL targeting) in the px330 vector (Addgene, #42230), and 10 nM single stranded deoxyoligonucleotide encoding a specific NVL mutation (see below for specific sequences). 72 hours after transfection, cells were selected by MM017 treatment. The resulting cells were evaluated by cresyl violet staining or collected and the relevant NVL mutations were analyzed by either amplicon or sanger sequencing.
Cell viability assay: In 96-well assay plates (Corning #2903), 2,000 cells were plated per well in 100 μL of medium and allowed to adhere overnight. The next day, compounds suspended in DMSO were dispensed to the assayed wells using a D300e Digital Dispenser (Tecan). All wells were normalized to 0.5% DMSO. 72 hours after incubation at 37° C. in 5% CO2, cell viability was assayed using an ATP-based luminescent viability assay, CellTiter-Glo (Promega #G8462). Substrate was mixed 1:1 with phosphate-buffered saline (PBS) supplemented with 1% Triton X-100, and 40 μL of this mixture was added to the assay wells. Plates were shaken on a microplate shaker for 10 minutes at room temperature. Luminescence (CellTiter-Glo) was recorded using a Synergy 2 microplate reader (BioTek). In Prism 9 software (GraphPad), ten-point dose response curves were plotted with baseline-correction to the vehicle control well, and IC50 values were calculated by curve fitting using asymmetric (five parameter), least squares fit.

The subject of a further test is HCT116 NVL^H304R cells. As to the kind of experiment: Cell viability in HCT116 NVL^H304R knock-in cells. Format: cell-based. As to conditions: Homo sapiens, HCT-116. An excerpt:
From whole exome sequencing, we identified variants that were acquired during IAA-induced mutagenesis with the hypothesis that genes related to resistance will be mutated in multiple clones. Two genes contained acquired variants in at least 3 of the 15 selected clones: TERT, mutated in 3 of 15 clones, and NVL, mutated in all 15 clones. […] In sum, 57 out of 59 unique clones harbored NVL mutations. The majority of mutations clustered within the D1 AAA+ ATPase domain and frequently affecting the same codons. […]
HCT116 cells were transfected with TransIT-LT (Mirus #MIR2304) according to manufacturer's protocol with a guide RNA (either mock or NVL targeting) in the px330 vector (Addgene, #42230), and 10 nM single stranded deoxyoligonucleotide encoding a specific NVL mutation (see below for specific sequences). […] The resulting cells were evaluated by cresyl violet staining or collected and the relevant NVL mutations were analyzed by either amplicon or sanger sequencing.
Cell viability assay: In 96-well assay plates (Corning #2903), 2,000 cells were plated per well in 100 μL of medium and allowed to adhere overnight. […] Luminescence (CellTiter-Glo) was recorded using a Synergy 2 microplate reader (BioTek). […]

The subject of the next test is iHCT116 cells. As to the kind of experiment: Growth inhibition of engineered iHCT116 cells. It counts as cell-based. The following applies: Homo sapiens. An excerpt: We recently described an isogenic forward genetic system to rapidly find mutations conferring resistance to compounds with anti-proliferative activity (32). This system uses an engineered colorectal cancer HCT116 cell line (iHCT116) in which the addition of indole acetic acid (IAA) initiates a ubiquitin-mediated degradation of the DNA mismatch repair protein MLH1, thereby providing a mechanism to temporarily increase mutation rates. We applied this strategy to MM017, a dibenzothiazepinone identified in a high-throughput small molecule screen for HCT116 cytotoxicity. […] We exposed barcoded iHCT116 cells, that had previously been cultured either with (Mutagenesis-on) or without IAA (Mutagenesis-off), to increasingly lethal doses of MM017.

For test [1], the system named is MM017-resistant iHCT116 clones. As to the kind of experiment: Forward genetics: MM017-resistant iHCT116 clones (NVL mutations). The following applies: summary statement. Format: cell-based, human.

For `COCCN1C(=O)c2ccccc2Sc2cc(NC(=O)c3ccoc3)ccc21` [MM017], the IC50 with HCT116 cells (NVL^WT, read-out: IC50) was 0.38 µM; in the test on HCT116 NVL^P307T cells, more than 50 µM; in the test with HCT116 NVL^H304R cells, 2.4 µM; with iHCT116 cells, 0.46 µM. Further, the “resistance of NVL^P307T cells” value in the test on HCT116 NVL^P307T cells is recorded as “comparatively resistant”. Besides, the “resistance caused by mutations in NVL2” value in test [1] is 30 fold.

As for `CC#CCN1C(=O)c2ccc(F)cc2Sc2cc(NC(=O)c3ccc4oc(=O)n(C)c4c3)ccc21` [MM927, N-(10-(But-2-yn-1-yl)-3-fluoro-11-oxo-10,11-dihydrodibenzo[b,f][1,4]thiazepin-7-yl)-3-methyl-2-oxo-2,3-dihydrobenzo[d]oxazole-5-carboxamide], the “potency relative to parent compound MM017” value with HCT116 cells (HCT116 proliferation) is “five times more potent”. Further, in the test with HCT116 cells (read-out: IC50, HCT116 proliferation), the IC50 turned out to be 0.079 µM. Moreover, in the test on HCT116 NVL^P307T cells, the “resistance of NVL^P307T cells” value is listed as “relatively resistant” and the IC50 is 1.67 µM.
